Measurements from patent EP1614683B1, “Indazole compounds and pharmaceutical compositions for inhibiting protein kinases, and methods for their use” (priority 1999, dated 2001).
Read-outs that look alike come from different tables or passages of the source.

How the values were obtained:
[1] = target: T1, phosphorylated Tie-2 (aa 775-1122) (Homo sapiens, UniProt Q02763); assay: TIE-2 spectrophotometric assay; assay type: biochemical; conditions: Table 5; 1 µM; bold values spectrophotometric assay, non-bolded DELFIA assay (bold not visible here); read-out: % Inhibition @ 1 µM Tie2-P
T1 construct: 4 to 12 nM phosphorylated Tie-2 (aa 775-1122); made in house; host or cells: insect cells
T1 sequence (Q02763 775-1122): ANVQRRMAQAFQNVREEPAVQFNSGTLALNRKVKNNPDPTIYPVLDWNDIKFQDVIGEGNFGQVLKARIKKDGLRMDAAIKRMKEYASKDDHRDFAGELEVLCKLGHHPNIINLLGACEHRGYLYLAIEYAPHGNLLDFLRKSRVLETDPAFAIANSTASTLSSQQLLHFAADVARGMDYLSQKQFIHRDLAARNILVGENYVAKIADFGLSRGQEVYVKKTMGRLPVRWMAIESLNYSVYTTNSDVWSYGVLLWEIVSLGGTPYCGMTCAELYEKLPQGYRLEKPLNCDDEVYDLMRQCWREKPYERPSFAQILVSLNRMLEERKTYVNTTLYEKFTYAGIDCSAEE
Outline: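 Human phosphorylated Tie-2 kinase activity was measured spectrophotometrically by coupling ADP formation, from phosphoryl transfer to poly(Glu4 Tyr), to NADH oxidation via pyruvate kinase and lactate dehydrogenase. Absorbance loss at 340 nm was read on a Beckman DU650. Reactions held 1 mM phosphoenolpyruvate, 0.24 mM NADH, 40 mM MgCl2, 5 mM DTT, 0.5 mM ATP, and 15 units/mL each of PK and LDH in 100 mM HEPES, pH 7.5.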

[2] = system: lung cancer cells (line MV522); assay: Cancer cell proliferation (MV522) assay; assay type: cell-based; conditions: MV522; Table 1; read-out: MV522 IC50
Outline: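 MTT reduction read-out was taken 72 h after addition of test agents, with no prior serum starvation. Cells were plated beforehand at two thousand per well in RPMI1640 containing 10% FBS and 2 mM glutamine and allowed one day to adhere.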

[3] = vehicle PEG400:H2O pH 2.3 30:70
[4] = in vivo; conditions: mouse, plasma, pH 2.3
[5] = target: unphosphorylated VEGF-R2Δ50 (Homo sapiens, UniProt P35968, DEL940-989/E990V); assay: biochemical; conditions: read-out: FLVK ** (% inhibition)
Chain of unphosphorylated VEGF-R2Δ50 (P35968 with tags, fused parts or gaps DEL940-989/E990V limits assumed): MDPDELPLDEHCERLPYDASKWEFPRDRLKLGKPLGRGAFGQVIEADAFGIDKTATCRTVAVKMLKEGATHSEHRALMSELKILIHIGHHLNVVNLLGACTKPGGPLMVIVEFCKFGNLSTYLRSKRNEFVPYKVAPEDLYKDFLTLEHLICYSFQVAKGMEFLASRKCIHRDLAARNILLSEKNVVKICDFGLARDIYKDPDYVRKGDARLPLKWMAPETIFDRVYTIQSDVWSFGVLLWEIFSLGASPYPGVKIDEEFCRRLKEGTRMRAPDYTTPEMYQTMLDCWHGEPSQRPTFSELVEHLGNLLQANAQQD

[6] = target: CDK4/Cyclin D3 complex (Homo sapiens, UniProt P11802); assay: biochemical; conditions: read-out: CDK4 * (% inhibition)
Chain of CDK4/Cyclin D3 complex (P11802 whole entry): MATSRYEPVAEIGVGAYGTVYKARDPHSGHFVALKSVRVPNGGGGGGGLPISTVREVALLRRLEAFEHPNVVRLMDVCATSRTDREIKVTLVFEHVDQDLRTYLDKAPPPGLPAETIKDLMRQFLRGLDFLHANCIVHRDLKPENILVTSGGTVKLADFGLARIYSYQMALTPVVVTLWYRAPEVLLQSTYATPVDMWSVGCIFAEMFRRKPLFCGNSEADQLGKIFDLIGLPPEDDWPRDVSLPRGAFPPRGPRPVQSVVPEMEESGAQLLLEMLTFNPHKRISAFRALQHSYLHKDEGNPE
Chain of CDK4/Cyclin D3 complex (P30281 whole entry partner): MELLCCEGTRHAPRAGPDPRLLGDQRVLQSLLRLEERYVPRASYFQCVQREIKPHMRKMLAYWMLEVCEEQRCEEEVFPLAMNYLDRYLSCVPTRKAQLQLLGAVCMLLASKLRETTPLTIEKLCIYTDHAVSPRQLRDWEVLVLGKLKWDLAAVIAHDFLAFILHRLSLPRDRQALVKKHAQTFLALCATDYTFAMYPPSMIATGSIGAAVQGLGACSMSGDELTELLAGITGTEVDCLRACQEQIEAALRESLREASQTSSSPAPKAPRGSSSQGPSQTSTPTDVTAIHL

[7] = target: human FGF-R1 (Homo sapiens, UniProt P11362, C488A/C584S/L457V); assay: FGF-R spectrophotometric assay; assay type: biochemical; conditions: Table 1; compound concentration 1 µM; read-out: FGF-P* (% inhibition)
Chain of human FGF-R1 (P11362 456-766 L457V/C488A/C584S): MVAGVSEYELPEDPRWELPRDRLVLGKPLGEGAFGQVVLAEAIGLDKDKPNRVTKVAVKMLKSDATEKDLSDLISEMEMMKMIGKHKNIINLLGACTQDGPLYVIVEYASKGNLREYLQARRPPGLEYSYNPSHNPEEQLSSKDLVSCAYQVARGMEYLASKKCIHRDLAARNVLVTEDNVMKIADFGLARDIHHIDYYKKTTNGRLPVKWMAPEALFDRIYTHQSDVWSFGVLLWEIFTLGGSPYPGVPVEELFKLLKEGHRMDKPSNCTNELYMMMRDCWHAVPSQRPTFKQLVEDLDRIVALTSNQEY
Experimental: The spectrophotometric assay was carried out as described above for VEGF-R2, except for the following changes in concentration: FGF-R = 50 nM, ATP = 2 mM, and poly(E4Y1) =15 mM.

[8] = system: VEGF dependent retinal vascular development; assay: In vivo assay of retinal vascular development in neonatal rats; parameters: species or system rat; conditions: Model P8, intravitreal, vehicle PEG/water 50:50
Outline: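 Neonatal rats given compound by intravitreal injection, vehicle usually 50% PEG 400/50% 300 mM sucrose, with vehicle in contralateral eye. Retinas removed six days later, ADPase-stained and flat-mounted; stained vessel area quantified by imaging and expressed as percent regression versus vehicle eye.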

[9] = system: VEGF dependent retinal neovascularization; assay: Neonatal rat model of retinopathy of prematurity; assay type: in vivo; conditions: Model ROP, intravitreal, 10 mg/ml, vehicle PEG/water 70:30
[10] = target: phosphorylated VEGF-R2Δ50 (Homo sapiens, UniProt P35968, DEL940-989/E990V); assay: biochemical; conditions: read-out: FLVK -P** (% inhibition)
Chain of phosphorylated VEGF-R2Δ50 (P35968 with tags, fused parts or gaps DEL940-989/E990V limits assumed): as the sequence (P35968 with tags, fused parts or gaps DEL940-989/E990V limits assumed) above

SMILES	inhibition at 1 µM [1] [%]	IC50 [2] [µM]	inhibition at 0.05 µM [5] [%]	inhibition at 1 µM [6] [%]	inhibition at 1 µM [7] [%]	other results
CCn1nc(C)cc1C(=O)Nc1cccc(Oc2ccc3c(/C=C/c4ccccn4)n[nH]c3c2)c1 [Reference Example 31(d), 6-[3-((1-Ethyl-3-methyl-1H-pyrazol-5-yl)carboxamido)phenoxy]-3-E-[2-(pridin-2-yl)ethenyl]-1H-indazole]	46	5.2	96	9	–	T1/2 ([3]; IP, 25 mg/kg): 5.3 h; T1/2 ([3]; PO, 10 mg/kg): 3.1 h; T1/2 ([3]; PO, 25 mg/kg): 1.9 h; T1/2 ([3]; PO, 50 mg/kg): 39.3 h; AUC ([4]; ip, 25 mg/kg): 238 µg·h/mL; AUC ([4]; po, 10 mg/kg): 49.1 µg·h/mL; AUC ([4]; po, 25 mg/kg): 204 µg·h/mL; AUC ([4]; po, 50 mg/kg): 431 µg·h/mL
C#CCNC(=O)c1ccccc1Sc1ccc2c(/C=C/c3ccccn3)n[nH]c2c1 [Reference Example 35(cc), 6-[2-(2-Propynylcarbamoyl)phenylsulfany]-3-E-[2-(pyridin-2-yl)ethenyl]-1H-indazole]	47	–	89	6	74	–
CCONC(=O)c1ccccc1Sc1ccc2c(/C=C/c3ccccn3)n[nH]c2c1 [Reference Example 35(dd), 6-[2-(ethoxycarbamoyl)phenylsufanyl]-3-E-[2-(pyridin-2-yl)ethenyl]-1H-indazole]	48	–	–	8	–	Initial Evaluation ([8]; 5 mg/ml): ++/+++ var
CC(C)ONC(=O)c1ccccc1Sc1ccc2c(/C=C/c3ccccn3)n[nH]c2c1 [Reference Example 35(k)]	55	–	85	7	34	–
O=C(NNc1ccccn1)c1ccccc1Sc1ccc2c(/C=C/c3ccccn3)n[nH]c2c1 [Reference Example 35(n), 6-[2-(N^2-(pyrid-2-ylhydrazino)carbonyl)phenylsulfanyl]-3-E-[2-(pyridin-2-yl)ethenyl]-1H-indazole]	82	5.1	–	10	–	–
CCn1nc(C)cc1C(=O)Nc1cccc(C(=O)c2ccc3c(/C=C/c4ccccn4)n[nH]c3c2)c1 [Reference Example 41(a), 6-[3-((1-Ethyl-3-methyl-1H-pyrazol-5-yl)carboxamido)benzoyl]. 3-E-[2-(pyridin-2-yl)ethenyl]-1H-indazole]	50	–	–	6	–	% Inhibition ([8]; 0.5 mg/ml): 0%; % Inhibition [9]: 64%; Initial Evaluation [9]: +++ (three pluses give to retinas with near total regression (approximately 75% or greater)); inhibition at 0.05 µM [10]: 94%
CCn1nc(C)cc1C(=O)Nc1cc(C(=O)c2ccc3c(/C=C/c4ccccn4)n[nH]c3c2)ccc1C [Reference Example 41(ee), 6-[3-((1-Ethyl-3-methyl-1H-pyrazol-5-yl)carboxamido)-4-methylbenzoyl]-3-E-[2-(pyridin-2-yl)ethenyl]-1H-indazole]	41	9.4	–	2	94	–
CCCn1nc(C)cc1C(=O)Nc1cccc(C(=O)c2ccc3c(/C=C/c4ccccn4)n[nH]c3c2)c1 [Reference Example 41(r)]	56	–	100	5	92	–
